Measured values published in patent US20260226068A1, “IMIDAZOTRIAZINE IL-17A MODULATORS AND USES THEREOF” (DICE ALPHA, INC., priority 2023, published 2026).

Legend:
IL-17A/F = target: T1, IL-17A/F (Homo sapiens, UniProt Q16552+Q96PD4); assay: IL-17A/F HEK-Blue cell assay (SEAP reporter); format: cell-based; conditions: HEK-Blue IL-17A reporter cells, IL17A/F 5 ng/mL, 20 hours, SEAP read at A630; read-out: HEK-Blue IL17AF (IC50 for IL-17A/F inhibition)
T1 construct: purchased R&D Systems
T1 sequence (Q16552 24-155): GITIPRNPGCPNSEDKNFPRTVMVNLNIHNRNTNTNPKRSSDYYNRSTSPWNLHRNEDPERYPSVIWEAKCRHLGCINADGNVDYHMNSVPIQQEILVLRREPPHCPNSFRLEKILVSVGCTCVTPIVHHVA
T1 sequence (Q96PD4 31-163): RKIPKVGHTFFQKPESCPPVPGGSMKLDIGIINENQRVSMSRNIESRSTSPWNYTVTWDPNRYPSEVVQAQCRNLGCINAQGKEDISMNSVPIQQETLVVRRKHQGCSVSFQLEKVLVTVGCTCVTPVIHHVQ

IL-17A/A = target: T2, IL-17A/A (Homo sapiens, UniProt Q16552); assay: IL-17A/A HEK-Blue cell assay (SEAP reporter); format: cell-based; conditions: HEK-Blue IL-17A reporter cells, IL17A/A 5 ng/mL, 20 hours, SEAP read at A630; read-out: HEK-Blue IL17AA (IC50 for IL-17A/A inhibition)
T2 construct: purchased Genscript Z03228
T2 sequence (Q16552 24-155): T1 sequence (Q16552 24-155)

Compound	IC50 (IL-17A/F)	IC50 (IL-17A/A)
Cc1nonc1C(=O)N[C@H](c1cn2nc(C[C@H]3C[C@@H](C(F)(F)F)CNC3=O)c(C3CCCOC3)nc2n1)C1CCC(F)(F)CC1 (single isomer, unassigned) [Compound 265]	> 1000 nM	< 100 nM
Cc1nonc1C(=O)N[C@H](c1cn2nc(C[C@H]3C[C@@H](C(F)(F)F)CNC3=O)c([C@@H]3CCCOC3)nc2n1)C1CCC(F)(F)CC1 (single isomer, unassigned) [Compound 266]	> 1000 nM	< 100 nM
Cn1nccc1C(=O)N[C@H](c1cn2nc(C[C@H]3C[C@@H](C(F)(F)F)CNC3=O)c([C@H]3CCCOC3)nc2n1)[C@H]1CCCC(F)(F)C1 (single isomer, unassigned) [Compound 267]	100 to 1000 nM	< 100 nM
Cn1nccc1C(=O)N[C@H](c1cn2nc(C[C@H]3C[C@@H](C(F)(F)F)CNC3=O)c([C@@H]3CCCOC3)nc2n1)[C@H]1CCCC(F)(F)C1 (single isomer, unassigned) [Compound 268]	100 to 1000 nM	< 100 nM
CCn1nccc1C(=O)N[C@H](c1cn2nc(C[C@H]3C[C@@H](C(F)(F)F)CNC3=O)c(C3CCCC(F)(F)C3)nc2n1)C1CCC(F)(F)CC1 (single isomer, unassigned) [Compound 271]	100 to 1000 nM	< 100 nM
CCn1nccc1C(=O)N[C@H](c1cn2nc(C[C@H]3C[C@@H](C(F)(F)F)CNC3=O)c([C@@H]3CCCC(F)(F)C3)nc2n1)C1CCC(F)(F)CC1 (single isomer, unassigned) [Compound 272]	< 100 nM	< 100 nM
Cc1nonc1C(=O)N[C@H](c1cn2nc(C[C@H]3C[C@@H](C(F)(F)F)CNC3=O)c([C@H]3CCOC3)nc2n1)C1CCC(F)(F)CC1 (single isomer, unassigned) [Compound 274]	> 1000 nM	< 100 nM
Cc1nonc1C(=O)N[C@H](c1cn2nc(C[C@H]3C[C@@H](C(F)(F)F)CNC3=O)c([C@@H]3CCOC3)nc2n1)C1CCC(F)(F)CC1 (single isomer, unassigned) [Compound 275]	> 1000 nM	< 100 nM
CCn1nccc1C(=O)N[C@H](c1cn2nc(C[C@H]3C[C@@H](C(F)(F)F)CNC3=O)c(C3CCN(C)C3)nc2n1)C1CCC(F)(F)CC1 (single isomer, unassigned) [Compound 285]	> 1000 nM	100 to 1000 nM
CCn1nccc1C(=O)N[C@H](c1cn2nc(C[C@H]3C[C@@H](C(F)(F)F)CNC3=O)c(C3CCOCC3)nc2n1)[C@@H]1CC[C@@H]2C[C@@H]2CC1 (single isomer, unassigned) [Compound 293]	< 100 nM	< 100 nM
CCn1nccc1C(=O)N[C@H](c1cn2nc(C[C@H]3C[C@@H](C(F)(F)F)CNC3=O)c(C3CCOCC3)nc2n1)C1CC[C@@H]2C[C@@H]2CC1 (single isomer, unassigned) [Compound 294]	< 100 nM	< 100 nM
CCn1nccc1C(=O)N[C@H](c1cn2nc(C[C@H]3C[C@@H](C(F)(F)F)CNC3=O)c([C@H]3CCOC3)nc2n1)C(C1CC1)C1CC1 (single isomer, unassigned) [Compound 321]	100 to 1000 nM	< 100 nM
CCn1nccc1C(=O)N[C@H](c1cn2nc(C[C@H]3C[C@@H](C(F)(F)F)CNC3=O)c([C@@H]3CCOC3)nc2n1)C(C1CC1)C1CC1 (single isomer, unassigned) [Compound 322]	100 to 1000 nM	< 100 nM
CCn1nccc1C(=O)N[C@H](c1cn2nc(C[C@H]3C[C@@H](C(F)(F)F)CNC3=O)c([C@@H]3CCCCN3)nc2n1)C1CCC(F)(F)CC1 (single isomer, unassigned) [Compound 324]	> 1000 nM	100 to 1000 nM
CCn1nccc1C(=O)N[C@H](c1cn2nc(C[C@H]3C[C@@H](C(F)(F)F)CNC3=O)c([C@H]3CCCCN3)nc2n1)C1CCC(F)(F)CC1 (single isomer, unassigned) [Compound 325]	> 1000 nM	100 to 1000 nM
CCn1nccc1C(=O)N[C@H](c1cn2nc(C[C@H]3C[C@@H](C(F)(F)F)CNC3=O)c([C@@H]3CN(C)CCO3)nc2n1)C1CCC(F)(F)CC1 (single isomer, unassigned) [Compound 376]	> 1000 nM	< 100 nM

Compound	IC50 (IL-17A/F)	IC50 (IL-17A/A)
CCn1nccc1C(=O)N[C@H](c1cn2nc(C[C@H]3C[C@@H](C(F)(F)F)CNC3=O)c([C@H](C)N3CCOCC3)nc2n1)C1CCC(F)(F)CC1 (single isomer, unassigned) [Compound 381]	> 1000 nM	100 to 1000 nM
CCn1nccc1C(=O)N[C@H](c1cn2nc(C[C@H]3C[C@@H](C(F)(F)F)CNC3=O)c([C@H]3CN(C)CCO3)nc2n1)C1CCC(F)(F)CC1 (single isomer, unassigned) [Compound 382]	> 1000 nM	< 100 nM
CCn1nccc1C(=O)N[C@H](c1cn2nc(C[C@H]3C[C@@H](C(F)(F)F)CNC3=O)c(C3Cc4cncnc4C3)nc2n1)C1CCC(F)(F)CC1 (single isomer, unassigned) [Compound 400]	100 to 1000 nM	< 100 nM
CCn1nccc1C(=O)N[C@H](c1cn2nc(C[C@H]3C[C@@H](C(F)(F)F)CNC3=O)c([C@@H]3CCCN(C)C3)nc2n1)C1CCC(F)(F)CC1 (single isomer, unassigned) [Compound 401]	> 1000 nM	100 to 1000 nM
CCn1nccc1C(=O)N[C@H](c1cn2nc(C[C@H]3C[C@@H](C(F)(F)F)CNC3=O)c(C3Cc4cncnc4C3)nc2n1)C1CCC(F)(F)CC1 (single isomer, unassigned) [Compound 402]	100 to 1000 nM	< 100 nM
CCn1nccc1C(=O)N[C@H](c1cn2nc(C[C@H]3C[C@@H](C(F)(F)F)CNC3=O)c(C3CCCN(C)C3)nc2n1)C1CCC(F)(F)CC1 (single isomer, unassigned) [Compound 403]	> 1000 nM	< 100 nM
CCn1nccc1C(=O)N[C@H](c1cn2nc(C[C@H]3C[C@@H](C(F)(F)F)CNC3=O)c(C3COCCN3C)nc2n1)C1CCC(F)(F)CC1 (single isomer, unassigned) [Compound 404]	> 1000 nM	100 to 1000 nM
CCn1nccc1C(=O)N[C@H](c1cn2nc(C[C@H]3C[C@@H](C(F)(F)F)CNC3=O)c(N3CCN(C)[C@H](C4CC4)C3)nc2n1)C1CCC(F)(F)CC1 (single isomer, unassigned) [Compound 431]	100 to 1000 nM	< 100 nM
CCn1nccc1C(=O)N[C@H](c1cn2nc(C[C@H]3C[C@@H](C(F)(F)F)CNC3=O)c(N3CCN(C)C(C4CC4)C3)nc2n1)C1CCC(F)(F)CC1 (single isomer, unassigned) [Compound 432]	100 to 1000 nM	< 100 nM
CCn1nccc1C(=O)N[C@H](c1cn2nc(C[C@H]3C[C@@H](C(F)(F)F)CNC3=O)c(C3CCN(C)C3)nc2n1)C1CCC(F)(F)CC1 (single isomer, unassigned) [Compound 439]	> 1000 nM	100 to 1000 nM
CCn1nccc1C(=O)N[C@H](c1cn2nc(CC3C[C@@H](C(F)(F)F)CNC3=O)c(C3CCOCC3)nc2n1)C1CCC(F)(F)CC1 (stereo in doubt) [Compound 89, N-((1S)-(4,4-difluorocyclohexyl)(2-(((3R,5R)-2-oxo-5-(trifluoromethyl)piperidin-3-yl)methyl)-3-(tetrahydro-2H-pyran-4-yl)imidazo[1,2-b][1,2,4]triazin-6-yl)methyl)-1-ethyl-1H-pyrazole-5-carboxamide]	> 1000 nM	< 100 nM
CCn1ncnc1C(=O)N[C@H](c1cn2nc(C[C@H]3C[C@@H](C(F)(F)F)CNC3=O)c(C3CCOCC3)nc2n1)C1CCCC(F)(F)C1 (stereo in doubt) [Compound 384, N—((S)—((S)-3,3-difluorocyclohexyl)(2-(((3R,5R)-2-oxo-5-(trifluoromethyl)piperidin-3-yl)methyl)-3-(tetrahydro-2H-pyran-4-yl)imidazo[1,2-b][1,2,4]triazin-6-yl)methyl)-1-ethyl-1H-1,2,4-triazole-5-carboxamide]	> 1000 nM	< 100 nM
Cn1nccc1C(=O)N[C@H](c1cn2nc(CC3C[C@@H](C(F)(F)F)CNC3=O)cnc2n1)C1CCC(F)(F)CC1 (stereo partly drawn) [Compound 3, N—((S)-(4,4-difluorocyclohexyl)(2-(((5R)-2-oxo-5-(trifluoromethyl)piperidin-3-yl)methyl)imidazo[1,2-b][1,2,4]triazin-6-yl)methyl)-1-methyl-1H-pyrazole-5-carboxamide]	> 1000 nM	100 to 1000 nM
CC(C)n1nccc1C(=O)N[C@H](c1cn2nc(CC3C[C@@H](C(F)(F)F)CNC3=O)cnc2n1)C1CCC(F)(F)CC1 (stereo partly drawn) [Compound 6, N—((S)-(4,4-difluorocyclohexyl)(2-(((5R)-2-oxo-5-(trifluoromethyl)piperidin-3-yl)methyl)imidazo[1,2-b][1,2,4]triazin-6-yl)methyl)-1-isopropyl-1H-pyrazole-5-carboxamide]	> 1000 nM	< 100 nM
O=C(N[C@H](c1cn2nc(CC3C[C@@H](C(F)(F)F)CNC3=O)cnc2n1)C1CCC(F)(F)CC1)c1conc1CCF (stereo partly drawn) [Compound 7, N—((S)-(4,4-difluorocyclohexyl)(2-(((5R)-2-oxo-5-(trifluoromethyl)piperidin-3-yl)methyl)imidazo[1,2-b][1,2,4]triazin-6-yl)methyl)-3-(2-fluoroethyl)isoxazole-4-carboxamide]	> 1000 nM	100 to 1000 nM
